Test results published in patent US11712443B2, “17α-monoesters and 17α,21-diesters of cortexolone for use in the treatment of tumors” (COSMO TECHNOLOGIES LTD., priority 2014, dated 2023).

Assays:
[1] = target: T1, Glucocorticoid Receptor (Homo sapiens, UniProt P04150); experiment: GR transcriptional reporter assay, antagonist mode; type: cell-based; conditions: inhibition of luminescence induced by Dexamethasone; compared to RU486; FIG. 7
T1 construct: endogenous in cells; host or cells: human kidney epithelial cells
T1 sequence (P04150 1-777): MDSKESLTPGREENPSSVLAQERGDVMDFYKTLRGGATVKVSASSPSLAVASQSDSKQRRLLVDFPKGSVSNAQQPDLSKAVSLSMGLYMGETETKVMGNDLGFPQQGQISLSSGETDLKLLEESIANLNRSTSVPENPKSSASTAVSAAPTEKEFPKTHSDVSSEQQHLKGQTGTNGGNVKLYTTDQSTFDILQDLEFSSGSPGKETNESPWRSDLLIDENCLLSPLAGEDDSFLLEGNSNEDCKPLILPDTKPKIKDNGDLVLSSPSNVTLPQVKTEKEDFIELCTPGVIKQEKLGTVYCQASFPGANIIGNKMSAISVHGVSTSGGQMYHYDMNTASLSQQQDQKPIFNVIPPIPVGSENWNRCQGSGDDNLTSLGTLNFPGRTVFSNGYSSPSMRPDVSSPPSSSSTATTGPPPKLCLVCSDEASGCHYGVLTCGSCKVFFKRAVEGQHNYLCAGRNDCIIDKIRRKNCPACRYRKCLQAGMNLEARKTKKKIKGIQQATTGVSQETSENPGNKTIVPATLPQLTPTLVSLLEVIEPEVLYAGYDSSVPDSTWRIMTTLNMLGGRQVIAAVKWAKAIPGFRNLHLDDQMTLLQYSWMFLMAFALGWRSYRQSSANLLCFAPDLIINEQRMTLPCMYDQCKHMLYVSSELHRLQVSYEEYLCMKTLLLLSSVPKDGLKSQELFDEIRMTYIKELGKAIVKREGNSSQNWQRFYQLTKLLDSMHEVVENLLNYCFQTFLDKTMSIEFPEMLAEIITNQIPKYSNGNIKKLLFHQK
Description: The androgen and glucocorticoid hormones elicit divergent and often opposing effects in cells, tissues, and animals. […] CB-03-10 GR antagonist and agonist activities were tested in an in vitro assay. Briefly, human kidney epithelial cells were transfected with DNA construct containing GR binding sites linked to luminescent based reporter molecule. After 24 hours, cells were treated under antagonist or agonist modes. After an additional 24 hours, luminescence which is proportional to GR agonist transcriptional activity was quantitated.
Antagonist Assay was based on inhibition of luminescence induced by Dexamethasone (Dex).
The antagonist activity of CB-03-10 was compared to a known GR antagonist, Mifepristone (also called RU486) as shown in FIG. 7.

[2] = tested on: MiaPaca2 cells; experiment: Apoptosis induction, Annexin V / propidium iodide flow cytometry; type: cell-based; conditions: 24 hours; control 11%; FIG. 9
Description: CB-03-10 was evaluated to determine if the mechanism of cytotoxicity on cancer cell lines was mediated by apoptosis and cell cycle arrest. Cancer cell lines were seeded in 6-well flat bottom plates. After 24 hours test compounds or DMSO vehicle (negative control) were added. After an additional 24 hours cells were scraped and stained with fluorescein conjugated Annexin V and propidium iodide and analyzed by flow cytometry.

[3] = tested on: MiaPaca2 cells; experiment: Cell cycle arrest, propidium iodide staining; type: cell-based; conditions: 24 hours; FIG. 10
Description: Apoptosis can occur at the G1/S or G2/M transition of the cell cycle. Cells were treated with CB-03-10 for 24 hours then fixed with paraformaldehyde and stained with propidium iodide. […] The lack of G1 block indicates no effect on p53. The S & G2/M blocks may indicate activity on cell cycle check point molecules. For S phase, a possible target is the cyclin dependent kinase 2 (CDK2). Gemzar and cisplatin are example drugs that act in S phase. For G2, a possible target is CDK1.

[4] = In vitro metabolism in human plasma; type: in vitro ADME; conditions: 37 C; liquid chromatography; FIG. 13
Description: To obtain some insights on the metabolism of CB-03-10 in human and rat plasma, a specific assay was designed. Briefly the compound was incubated at different time in human and rat plasma at 37 C. After incubation the samples were tested for presence of the intact compound by liquid chromatography.

[5] = tested on: MiaPaca-2 pancreatic tumor xenograft; experiment: Human pancreatic tumor xenograft in nude mice, subcutaneous treatment; type: in vivo
Description: The test was carried out comparing the anti-tumor activity of cortexolone 17α-benzoate at two different dosages (8.0 mg/kg, corresponding approximately at 230 μM, and 40 mg/kg, corresponding approximately at 1150 μM), versus the vehicle (i.e. 0.4% (v/v) tween 80 and 0.5% (w/v) carboxymethylcellulose in normal saline) and versus the comparator Cyproterone Acetate at two different dosages (7.4 mg/kg and 37 mg/kg).
1×10^6 MiaPaca-2 cells suspended in matrigel were subcutaneously injected into 6 week old athymic nude mice.
The treatment with the tested compounds, with the vehicle and with the comparative compound, was initiated after the tumor volume has reached 50 mm3 after transplantation. All compounds were injected 100 μL/mouse subcutaneously of low dose solution (approximately 230 μM) or 100 μL/mouse of high dose solution (approximately 1150 μM) of cortexolone 17α-benzoate, vehicle and cyproterone acetate, respectively. Compounds and controls were administered subcutaneously daily for 28 days.
Tumors were measured every 4 days with a digital caliper.
The results are plotted in FIG. 1 as average change in tumor volume relative to the start of treatment. Tumor volume was calculated according to the formula 0.5236(r1)^2(r2) where r1<r2.
The test was carried out comparing the anti-tumor activity of cortexolone 17α-valerate-21-propionate (CB-03-10) at two different dosages (approximately 8.6 mg/kg and 43 mg/kg) versus the vehicle (i.e. 0.4% (v/v) tween 80 and 0.5% (w/v) carboxymethylcellulose in normal saline) and versus the comparator Cyproterone Acetate at two different dosages (7.4 mg/kg and 37 mg/kg).
The treatment with the tested compound, with the vehicle and with the comparative compound was initiated after the tumor has reached a volume of 50 mm3 after implantation, injecting subcutaneously 100 μL/mouse of low dose solution (approximately 230 μM) or 100 μL/mouse of high dose solution (approximately 1150 μM) of cortexolone 17α-valerate-21-propionate (CB-03-10), vehicle and cyproterone acetate, respectively. Compounds and controls were administered subcutaneously daily for 28 days.
The results are plotted in FIG. 2 as average change in tumor volume relative to the start of treatment. Tumor volume was calculated according to the formula 0.5236(r1)^2(r2) where r1<r2.
CPA a well-known anti-androgen was used as control. Briefly 1×10^6 MiaPaca2 cells suspended in matrigel were subcutaneously (SC) injected into 6 week old male athymic nude mice. Tumors were measured every 4 days with a digital caliper. Tumor volume was calculated according to the formula: 0.5236(r1)2(r2) where r1<r2. Treatment with CB-03-10 and controls compounds was initiated after the tumor had reached 50 mm3. Compounds diluted in DMSO/2-hydroxypropyl b-cyclodextrin (vehicle) were injected subcutaneously (SC) daily (100 μL/mouse) at the concentration of 40 mg/Kg daily for 28 consecutive days.

## CCCCC(=O)O[C@]1(C(=O)COC(=O)CC)CC[C@H]2[C@@H]3CCC4=CC(=O)CC[C@]4(C)[C@H]3CC[C@@]21C [CB-03-10, cortexolone 17α-valerate-21-propionate]
[1]
  GR antagonist activity: potent antagonist (10 times less than RU486)
[2]
  cells in apoptosis (early and late apoptosis), total: 28%
[3]
  cell cycle arrest: induces an S phase block at lower concentrations then a G2/M block at higher concentration
[4]
  degradation in human plasma: rapidly degraded to CB-03-05 in human plasma
[5]; Example 6, high dose approximately 43 mg/kg (1150 μM, 100 μL/mouse) SC daily 28 days, for the time of treatment
  pancreatic tumor size increase relative to initial tumor size: less than 5 fold
[5]; Example 22, 40 mg/Kg SC daily 28 days, during the treatment period
  pancreatic tumor size increase relative to the initial size: less than 5 fold
[5]; Example 22, 40 mg/Kg SC daily 28 days, vehicle 60 days
  Median survival: 70 days
[5]; Example 22, 14 days after treatment was stopped, vehicle 14-fold
  tumor size increase: 6 fold
[5]; Examples 5 and 6, FIG. 3, same animal model
  in vivo antitumor activity compared with Cyproterone Acetate: antitumor activity higher than Cyproterone Acetate
